The nature of this data set: TIMS collisional cross section (CCS, N2) of the lipid ion; higher = larger ion cross section. Conditions: ionization mode: positive, one isomer drawn. On the procedure:
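Lipid extracts of human plasma (NIST SRM 1950), mouse liver and HeLa cells were separated by nanoflow C18 LC (30 min gradient, 60 °C) and analysed by TIMS-PASEF on a timsTOF Pro in positive ion mode. Ion mobility was calibrated with the Agilent tuning mix and converted to collisional cross sections (Mason–Schamp) in N2 drift gas. Lipids were identified by MS/MS (SimLipid) and manual curation. SMILES are LIPID MAPS representative structures for the annotated lipid.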

± gives the standard deviation of the averaged measurements.

Turning to `CCCCCCC/C=C\CCCCCCCC(=O)OC[C@@H](COC(=O)CCCCCCCCCCCCC)OC(=O)CCCCCCCCCCCCCCC` [TG 14:0_16:0_17:1] (ion (formula + adduct): [C50H94O6+NH4] 1+), the “TIMS collisional cross section” value (sample type: HeLa) came to 309.1 Å² and the “TIMS collisional cross section” value (sample type: Liver) stood at 309 Å². As to `CCCCCC/C=C\CCCCCCCC(=O)O[C@H](COC(=O)CCCCCCCCCCCCCC)COP(=O)([O-])OCC[N+](C)(C)C` [PC 15:0_16:1] (ion (formula + adduct): [C39H76NO8P+H] 1+), for the setting “sample type: HeLa”, the “TIMS collisional cross section” value is recorded as 278.9 Å².

As for `CC/C=C\C/C=C\C/C=C\C/C=C\C/C=C\CCCC(=O)O[C@H](COC(=O)CCCCCCC/C=C\CCCCCCC)COP(=O)([O-])OCC[N+](C)(C)C` [PC 17:1@_20:5] (ion (formula + adduct): [C45H78NO8P+H] 1+), where the note is “sample type: HeLa”, the “TIMS collisional cross section” value came to 286.4 Å². Consider `CC/C=C\C/C=C\C/C=C\C/C=C\C/C=C\CCCCCC(=O)O[C@@H](CO)COC(=O)CCCCCCC/C=C\C/C=C\CCCCC` [DG 18:2_22:5_0:0] (ion (formula + adduct): [C43H70O5+NH4] 1+), for which, for the setting “sample type: Liver”, the “TIMS collisional cross section” value is recorded as 266.9 Å².

In the case of `CC/C=C\C/C=C\C/C=C\C/C=C\C/C=C\CCCC(=O)O[C@@H](CO)COC(=O)CCCCCCCCCCCCCCC` [DG 16:0_20:5_0:0] (ion (formula + adduct): [C39H66O5+NH4] 1+), the “TIMS collisional cross section” value (sample type: HeLa) turned out to be 261.5 Å². Consider `CCCCC/C=C\C/C=C\CCCCCCCC(=O)OC[C@@H](COC(=O)CCCCCCC/C=C\CCCCCC)OC(=O)CCCCCCC/C=C\C/C=C\CCCCC` [TG 16:1_18:2_18:2] (ion (formula + adduct): [C55H96O6+NH4] 1+), for which the “TIMS collisional cross section” value (sample type: Liver) is reported as 315.45 ± 0.49 Å². In the case of `CCCCCC/C=C\CCCCCCCC(=O)O[C@H](COC(=O)CCCCCCCCCCCCCCC)COP(=O)([O-])OCC[N+](C)(C)C` [PC 16:0@_16:1] (ion (formula + adduct): [C40H78NO8P+H] 1+), the “TIMS collisional cross section” value (sample type: HeLa) came out at 281.7 Å² and the “TIMS collisional cross section” value (sample type: plasma) was found to be 282.2 Å².

With `CC/C=C\C/C=C\C/C=C\C/C=C\C/C=C\CCCC(=O)O[C@H](COC(=O)CCCCCCC/C=C\CCCCCC)COP(=O)([O-])OCC[N+](C)(C)C` [PC 16:1_20:5] (ion (formula + adduct): [C44H76NO8P+H] 1+), the “TIMS collisional cross section” value (sample type: HeLa) is 283.2 Å². `CCCCC/C=C\C/C=C\CCCCCCCC(=O)OC[C@@H](COC(=O)CCCCCCC/C=C\CCCCC)OC(=O)CCCCCCC/C=C\CCCCCC` [TG 15:1_16:1_18:2] (ion (formula + adduct): [C52H92O6+NH4] 1+): the “TIMS collisional cross section” value (sample type: HeLa) was 308.4 Å². As for `CCCCCC/C=C/CCCCCCCC(=O)OC[C@@H](O)COP(=O)([O-])OCC[N+](C)(C)C` [LPC 16:1_0:0] (ion (formula + adduct): [C24H48NO7P+H] 1+), under “sample type: plasma”, the “TIMS collisional cross section” value amounted to 225.77 ± 1.4 Å². Take `CCCCCCCCCCCCCCCCCC(=O)OC[C@@H](COC(=O)CCCCCCCCCCCCC)OC(=O)CCCCCCCCCCCCCCC` [TG 14:0_16:0_18:0] (ion (formula + adduct): [C51H98O6+NH4] 1+): the “TIMS collisional cross section” value (sample type: Liver) came out at 314.3 Å². Regarding `CCCCCC/C=C\CCCCCCCC(=O)OC[C@@H](COC(=O)CCCCCCCCCCCCCCC)OC(=O)CCCCCCC/C=C\CCCCCC` [TG 16:0_16:1_16:1] (ion (formula + adduct): [C51H94O6+NH4] 1+), for the setting “sample type: Liver”, the “TIMS collisional cross section” value is reported as 310.2 Å². Take `CCCCC/C=C\C=C/CCCCCCCCC(=O)O[C@H](COC(=O)CCCCCCCCCCCCCCCCC)COP(=O)([O-])OCC[N+](C)(C)C` [PC 18:0_18:2] (ion (formula + adduct): [C44H84NO8P+H] 1+): the “TIMS collisional cross section” value was 292.8 Å² (sample type: Liver) and 291.1 Å² (sample type: plasma). In the case of `CCCCCCCC/C=C\CCCCCCCCCC(=O)OC[C@@H](COC(=O)CCCCCCCCCCCCCCCCC)OC(=O)CCCCCCC/C=C\CCCCCCCC` [TG 18:0_18:1_20:1] (ion (formula + adduct): [C59H110O6+NH4] 1+), the “TIMS collisional cross section” value turned out to be 333.7 Å² (sample type: HeLa) and 334.1 Å² (sample type: plasma). In the case of `CCCCCCCCCCCCCCCCCCCCCC(=O)OC[C@@H](COC(=O)CCCCCCCCCCCCCCCCC)OC(=O)CCCCCCCCCCCCCCCCCCCCC` [TG 18:0_22:0_22:0] (ion (formula + adduct): [C65H126O6+NH4] 1+), the “TIMS collisional cross section” value is listed as 355.9 Å² (sample type: Liver) and 355.2 Å² (sample type: plasma). Regarding `CC/C=C\C/C=C\C/C=C\C/C=C\C/C=C\C/C=C\CCC(=O)O[C@H](COC(=O)CCC/C=C\C/C=C\C/C=C\C/C=C\CCCCC)COP(=O)(O)OCCN` [PE 20:4@_22:6] (ion (formula + adduct): [C47H74NO8P+H] 1+), the “TIMS collisional cross section” value is, setting by setting: (sample type: HeLa) 284.8 Å²; (sample type: Liver) 284.4 Å². Turning to `CCCCC/C=C\C/C=C\C/C=C\CCCCCCC(=O)O[C@H](COC(=O)CCCCCCCCC/C=C\CCCCCCCC)COP(=O)([O-])OCC[N+](C)(C)C` [PC 20:1@_20:3] (ion (formula + adduct): [C48H88NO8P+H] 1+), the “TIMS collisional cross section” value (sample type: plasma) was found to be 301.7 Å². In the case of `CCCCC/C=C\C/C=C\C/C=C\CCCCC(=O)O[C@H](COC(=O)CCCCCCCCCCCCCCCCC)COP(=O)(O)OCCN` [PE 18:0_18:3@] (ion (formula + adduct): [C41H76NO8P+H] 1+), the “TIMS collisional cross section” value (sample type: Liver) is recorded as 278.7 Å². For `CC/C=C\C/C=C\C/C=C\C/C=C\C/C=C\C/C=C\CCC(=O)OC[C@@H](O)COP(=O)([O-])OCC[N+](C)(C)C` [LPC 22:6] (ion (formula + adduct): [C30H50NO7P+H] 1+), the “TIMS collisional cross section” value runs as follows: (sample type: HeLa) 232.4 Å²; (sample type: Liver) 234.5 Å²; (sample type: plasma) 233.5 ± 1.3 Å². For `CCCCCCCCCCC/C=C\CCCCC(=O)O[C@H](CO)COP(=O)([O-])OCC[N+](C)(C)C` [LPC 18:1] (ion (formula + adduct): [C26H52NO7P+H] 1+), the “TIMS collisional cross section” value (sample type: plasma) is reported as 231.9 Å².

Regarding `CCCCC/C=C\C/C=C\C/C=C\C/C=C\CCCC(=O)O[C@H](COC(=O)CCCCCCCCCCCCCCCCCC)COP(=O)(O)OCCN` [PE 19:0_20:4@] (ion (formula + adduct): [C44H80NO8P+H] 1+), the “TIMS collisional cross section” value (sample type: HeLa) worked out at 287.3 Å².

In the case of `CCCCC/C=C\C/C=C\C/C=C\C/C=C\CCCCCC(=O)O[C@H](CO)COP(=O)(O)OCCN` [LPE 22:4] (ion (formula + adduct): [C27H48NO7P+H] 1+), the “TIMS collisional cross section” value (sample type: Liver) worked out at 223.9 Å². In the case of `CCC/C=C\CCCCCCCC/C=C/[C@@H](O)[C@H](COP(=O)([O-])OCC[N+](C)(C)C)NC(=O)CCCCCCCCCCCCCCCCCCCCC` [SM d18:2_22:0@] (ion (formula + adduct): [C45H89N2O6P+H] 1+), the “TIMS collisional cross section” value (sample type: plasma) is given as 299.9 Å².

For `CCCCCCCC/C=C\CCCCCCCC(=O)OC[C@H](COP(=O)([O-])OCC[N+](C)(C)C)OC(=O)CCCCCCCCC/C=C\CCCCCCCCCC` [PC 18:1_22:1@] (ion (formula + adduct): [C48H92NO8P+H] 1+), the “TIMS collisional cross section” value (sample type: HeLa) was determined as 304.8 Å². As to `CCCC/C=C\C/C=C\CCCCCCCC(=O)OC[C@H](COC(=O)CCC/C=C\C/C=C\C/C=C\C/C=C\CCCCC)OC(=O)CCCCCCC/C=C\C/C=C\CCCCC` [TG 17:2_18:2_20:4] (ion (formula + adduct): [C58H96O6+NH4] 1+), the “TIMS collisional cross section” value (sample type: Liver) was 322.2 Å². Regarding `CC/C=C\C/C=C\C/C=C\C/C=C\C/C=C\C/C=C\CCC(=O)OC[C@@H](COC(=O)CCCCCCC/C=C\CCCCCCC)OC(=O)CCCCCCC/C=C\CCCCCCCC` [TG 17:1_18:1_22:6] (ion (formula + adduct): [C60H100O6+NH4] 1+), the “TIMS collisional cross section” value (sample type: HeLa) is recorded as 328.2 Å². On to `CCCCCC/C=C\CCCCCCCC(=O)O[C@@H](COC(=O)CCCCCCC/C=C\CCCCCCCC)COC(=O)CCCCCCCCCCCCCC` [TG 15:0_16:1_18:1] (ion (formula + adduct): [C52H96O6+NH4] 1+), for which the “TIMS collisional cross section” value (sample type: HeLa) was determined as 312.9 Å² and the “TIMS collisional cross section” value (sample type: plasma) is on record as 312.8 ± 0.14 Å².

As for `CCCCCCC/C=C\CCCCCCCC(=O)OC[C@@H](COC(=O)CCCCCCCCCCCCCCC)OC(=O)CCCCCCCCCCCCCCC` [TG 16:0_16:0_17:1] (ion (formula + adduct): [C52H98O6+NH4] 1+), under “sample type: Liver”, the “TIMS collisional cross section” value came out at 315.2 Å². With `CCCCCCCCCCCCCCCCCCCCCC(=O)OC[C@@H](COC(=O)CCCCCCCCCCCCCCCCC)OC(=O)CCCCCCCCCCCCCCCCC` [TG 18:0_18:0_22:0] (ion (formula + adduct): [C61H118O6+NH4] 1+), under “sample type: Liver”, the “TIMS collisional cross section” value was determined as 344.1 Å².

In the case of `CCCCCC/C=C\CCCCCCCC(=O)OC[C@H](COC(=O)CCCCCCCCCCCCCCCCC)OC(=O)CCCCCCC/C=C\CCCCCCC` [TG 16:1_17:1_18:0] (ion (formula + adduct): [C54H100O6+NH4] 1+), the “TIMS collisional cross section” value (sample type: HeLa) turned out to be 318.7 Å².

`CC/C=C\C/C=C\C/C=C\C/C=C\C/C=C\C/C=C\CCC(=O)O[C@H](CO/C=C\CCCCCCCCCCCCCC)COP(=O)([O-])OCC[N+](C)(C)C` [PC P- 16:0@_22:6] (ion (formula + adduct): [C46H80NO7P+H] 1+): under “sample type: HeLa”, the “TIMS collisional cross section” value turned out to be 291.3 Å². Consider `CC/C=C\C/C=C\C/C=C\C/C=C\C/C=C\C/C=C\CCC(=O)O[C@H](COC(=O)CCCCCCCCCCCCCC)COP(=O)([O-])OCC[N+](C)(C)C` [PC 15:0_22:6] (ion (formula + adduct): [C45H78NO8P+H] 1+), for which the “TIMS collisional cross section” value (sample type: Liver) was 288 Å².
